Results taken from patent US20050048127A1, “Small spherical particles of low molecular weight organic molecules and methods of preparation and use thereof” (priority 2003, published 2005).

What was measured:
[1] = Formation of small spherical particles from first/second solvent mixtures on glass slide under nitrogen flow, graded by polarized light microscope; type: physicochemical; set-up: key: (+) = predominantly small spherical particles; (+/−) = a mixture of small spherical particles and non-spherical particles; (−) = predominantly non-spherical particles; ppt = the steroid precipitated out during addition of the second solvent
Text: The ability to form small spherical particles of two steroids, beclomethasone dipropionate (BDP) and fluticasone propionate (FP) was examined in matrix experiments using acetone, ethanol, methanol, and methyl ethyl ketone (MEK) individually as the first solvents and water and heptane individually as the second solvents. The amount of second solvent added to the first solvent/steroid solution was varied as 0%, 10%, 20%, 30%, and 40% (v/v). MEK is not miscible with water and methanol is not miscible with heptane, so those combinations were not included in the experiment.
Either BDP or FP was weighed into a large screw cap glass tube and the solvent of choice was added (w/v) to yield a final concentration of 2 mg/mL. The tubes were vortexed and sonicated to completely dissolve the steroid. The sealed tubes containing these solutions were used as stock solutions for subsequent mixture with the appropriate second solvent. Immediately prior to use, an appropriate amount of the second solvent was slowly added to the first solvent/steroid solution while mixing to avoid premature precipitation. After adding the second solvent, the solutions were visually examined to ensure that premature precipitation had not occurred.
A fixture was constructed such that a 0.125-inch diameter orifice nozzle was positioned 1.75 inches above a standard glass microscope slide. Nitrogen gas was allowed to flow at 5 liters per minute through the nozzle and over the slide such that the flow direction of the gas was perpendicular to the surface of the slide. One or two drops of the test solution were placed on the slide directly under the orifice, and the nitrogen flow continued until the slide was dry (one to three minutes depending on the solution composition). Each slide was then examined under a polarized light microscope (Leica EPISTAR, Buffalo, N.Y.) using incident lighting. Each slide was graded for the presence of predominantly small spherical particles (+), a mixture of small spherical particles and non-spherical particles (+/−), and predominantly non-spherical particles (−). Variations in size and size distribution were observed between different test solutions.

[2] = Particle morphology and size by scanning electron microscopy (SEM); type: physicochemical; settings: broad distribution, some particles larger than upper value
Method: Particle morphology for the following examples was obtained using Scanning Electron Microscopy (SEM, FEI Quanta 200, Hilsboro, Oreg.). The sample was prepared for analysis by placing a small amount on carbon double-stick tape fixed to an aluminum sample mount. The sample was then sputter-coated using a Cressington sputter coater 108 Auto for 90 seconds and 20 mA. A second SEM instrument (Amray 1000, Bedford, Mass.) was used to obtain additional images of the small spherical particles, due to its higher resolution capabilities. Particle morphology for the following examples was obtained using Scanning Electron Microscopy (FEI Quanta 200, Hilsboro, Oreg.). FIG. 4 presents SEM of micronized budesonide starting material and FIG. 5 presents SEM of the resulting budesonide small spherical particles.

[3] = first solvent MEK, 0% second solvent (2 mg/mL stock solution)
[4] = first solvent acetone, 0% second solvent (2 mg/mL stock solution)
[5] = first solvent acetone, 10% heptane
[6] = first solvent acetone, 10% water
[7] = first solvent acetone, 20% heptane
[8] = first solvent acetone, 20% water
[9] = first solvent acetone, 30% heptane
[10] = first solvent acetone, 30% water
[11] = first solvent acetone, 40% heptane
[12] = first solvent acetone, 40% water
[13] = first solvent ethanol, 0% second solvent (2 mg/mL stock solution)
[14] = first solvent ethanol, 10% heptane
[15] = first solvent ethanol, 10% water
[16] = first solvent ethanol, 20% heptane
[17] = first solvent ethanol, 20% water
[18] = first solvent ethanol, 30% heptane
[19] = first solvent ethanol, 30% water
[20] = first solvent ethanol, 40% heptane
[21] = first solvent ethanol, 40% water
[22] = first solvent methanol, 0% second solvent (2 mg/mL stock solution)
[23] = first solvent methanol, 10% water
[24] = first solvent methanol, 20% water
[25] = first solvent methanol, 30% water
[26] = first solvent methanol, 40% water

Formation of small spherical particles [1, 3] | Formation of small spherical particles ([1]; first solvent MEK, 10% heptane) | Formation of small spherical particles ([1]; first solvent MEK, 20% heptane) | Formation of small spherical particles ([1]; first solvent MEK, 30% heptane) | Formation of small spherical particles ([1]; first solvent MEK, 40% heptane) | Formation of small spherical particles [1, 4] | Formation of small spherical particles [1, 5] | Formation of small spherical particles [1, 6] | Formation of small spherical particles [1, 7] | Formation of small spherical particles [1, 8] | Formation of small spherical particles [1, 9] | Formation of small spherical particles [1, 10] | Formation of small spherical particles [1, 11] | Formation of small spherical particles [1, 12] | Formation of small spherical particles [1, 13] | Formation of small spherical particles [1, 14] | Formation of small spherical particles [1, 15] | Formation of small spherical particles [1, 16] | Formation of small spherical particles [1, 17] | Formation of small spherical particles [1, 18] | SMILES | other results
+/− | − | − | − | − | + | + | + | + | +/− | +/− | − | +/− | − | +/− | − | +/− | − | +/− | − | CCC(=O)O[C@]1(C(=O)SCF)[C@H](C)C[C@H]2[C@@H]3C[C@H](F)C4=CC(=O)C=C[C@]4(C)[C@@]3(F)[C@@H](O)C[C@@]21C [Fluticasone propionate] | Formation of small spherical particles [1, 19]: −; Formation of small spherical particles [1, 20]: −; Formation of small spherical particles [1, 21]: −; Formation of small spherical particles [1, 22]: −; Formation of small spherical particles [1, 23]: −; Formation of small spherical particles [1, 24]: ppt; Formation of small spherical particles [1, 25]: ppt; Formation of small spherical particles [1, 26]: ppt
+/− | + | + | + | + | + | + | + | + | + | +/− | + | +/− | + | + | + | + | +/− | + | +/− | CCC(=O)OCC(=O)[C@@]1(OC(=O)CC)[C@@H](C)C[C@H]2[C@@H]3CCC4=CC(=O)C=C[C@]4(C)[C@@]3(Cl)[C@@H](O)C[C@@]21C [Beclomethasone dipropionate] | Formation of small spherical particles [1, 19]: +; Formation of small spherical particles [1, 20]: +/−; Formation of small spherical particles [1, 21]: +; Formation of small spherical particles [1, 22]: +; Formation of small spherical particles [1, 23]: +; Formation of small spherical particles [1, 24]: +; Formation of small spherical particles [1, 25]: +; Formation of small spherical particles [1, 26]: +
 |  |  |  |  |  |  |  |  |  |  |  |  |  |  |  |  |  |  |  | CCC(=O)OCC(=O)[C@@]1(OC(=O)CC)[C@@H](C)C[C@H]2[C@@H]3CCC4=CC(=O)C=C[C@]4(C)[C@@]3(Cl)[C@@H](O)C[C@@]21C [micronized BDP starting material, beclomethasone dipropionate] | particle size distribution [2]: 5-50 microns
